Laboratory results reported in patent publication US10750743B2, “Pyridazinone herbicides” (E.I. DU PONT DE NEMOURS AND COMPANY, priority 2015, dated 2020).

Legend:
Format in all cases: in vivo
[1] = system: foxtail, giant (giant foxtail, Setaria faberii); experiment: Test A postemergence application, visual injury rating; conditions: 0 to 100 scale, 0 no effect, 100 complete control
Procedure, shortened: (§1)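 Injury ratings, 0 (no effect) to 100 (complete control), were scored visually versus untreated plants roughly 10 d after treatment under greenhouse conditions. Treatments used surfactant-containing solvent formulations, sprayed onto soil preemergence or onto one- to two-leaf seedlings (2-10 cm) postemergence, grown in a loam-sand mix.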

[2] = system: ryegrass, It. (Italian ryegrass, Lolium multiflorum); experiment: as above; conditions: 0 to 100 scale, 0 no effect, 100 complete control
Procedure, shortened: as §1

[3] = system: ragweed (common ragweed, Ambrosia elatior); experiment: as above; conditions: 0 to 100 scale, 0 no effect, 100 complete control
Procedure, shortened: as §1

[4] = system: blackgrass (Alopecurus myosuroides); experiment: as above; conditions: 0 to 100 scale, 0 no effect, 100 complete control
Procedure, shortened: as §1

[5] = system: wheat (Triticum aestivum); experiment: as above; conditions: 0 to 100 scale, 0 no effect, 100 complete control
Procedure, shortened: as §1

[6] = system: galium (catchweed bedstraw, Galium aparine); experiment: as above; conditions: 0 to 100 scale, 0 no effect, 100 complete control
Procedure, shortened: as §1

[7] = system: pigweed (Amaranthus retroflexus); experiment: as above; conditions: 0 to 100 scale, 0 no effect, 100 complete control
Procedure, shortened: as §1

[8] = system: corn (Zea mays); experiment: as above; conditions: 0 to 100 scale, 0 no effect, 100 complete control
Procedure, shortened: as §1

[9] = system: kochia (Kochia scoparia); experiment: as above; conditions: 0 to 100 scale, 0 no effect, 100 complete control
Procedure, shortened: as §1

[10] = system: barnyardgrass (Echinochloa crus-galli); experiment: as above; conditions: 0 to 100 scale, 0 no effect, 100 complete control
Procedure, shortened: as §1

[11] = system: sedge, umbrella (small-flower umbrella sedge, Cyperus difformis); experiment: Test B flooded paddy test, visual rating; conditions: Flood, 250 g ai/ha, applied to paddy water, rated after 13 to 15 d
Procedure, shortened: (§2)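 Ratings use a 0-100 visual scale, where 100 is complete control, and compare treated plants with controls after 13 to 15 d of greenhouse growth. Compound went straight into paddy water kept 3 cm over the soil surface, applied to seedlings at the 2-leaf stage.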

[12] = system: rice (Oryza sativa); experiment: Test B flooded paddy test, visual rating; conditions: Flood, 250 g ai/ha, applied to paddy water, rated after 13 to 15 d
Procedure, shortened: as §2

[13] = system: ducksalad (Heteranthera limosa); experiment: Test B flooded paddy test, visual rating; conditions: Flood, 250 g ai/ha, applied to paddy water, rated after 13 to 15 d
Procedure, shortened: as §2

[14] = system: barnyardgrass (Echinochloa crus-galli); experiment: Test B flooded paddy test, visual rating; conditions: Flood, 250 g ai/ha, applied to paddy water, rated after 13 to 15 d
Procedure, shortened: as §2

[15] = system: foxtail, giant (giant foxtail, Setaria faberii); experiment: Test A preemergence, directed soil spray, visual injury rating; conditions: 0 is no effect, 100 is complete control
Procedure, shortened: as §1

[16] = system: ryegrass, It. (Italian ryegrass, Lolium multiflorum); experiment: as above; conditions: 0 is no effect, 100 is complete control
Procedure, shortened: as §1

[17] = system: ragweed (common ragweed, Ambrosia elatior); experiment: as above; conditions: 0 is no effect, 100 is complete control
Procedure, shortened: as §1

[18] = system: pigweed (Amaranthus retroflexus); experiment: as above; conditions: 0 is no effect, 100 is complete control
Procedure, shortened: as §1

[19] = system: kochia (Kochia scoparia); experiment: as above; conditions: 0 is no effect, 100 is complete control
Procedure, shortened: as §1

[20] = system: barnyardgrass (Echinochloa crus-galli); experiment: as above; conditions: 0 is no effect, 100 is complete control
Procedure, shortened: as §1

CCc1sc2ncccc2c1-c1c(OC(=O)C2CC2)c(C)nn(C)c1=O [Compound 21]
Foxtail, Giant plant response rating ([1]; 125 g ai/ha): 0 | Foxtail, Giant plant response rating ([1]; 500 g ai/ha): 0 | Ryegrass, It. plant response rating ([2]; 125 g ai/ha): 0 | Ryegrass, It. plant response rating ([2]; 500 g ai/ha): 0 | Ragweed plant response rating ([3]; 125 g ai/ha): 0 | Ragweed plant response rating ([3]; 500 g ai/ha): 0 | Blackgrass plant response rating ([4]; 125 g ai/ha): 0 | Blackgrass plant response rating ([4]; 500 g ai/ha): 0 | Wheat plant response rating ([5]; 125 g ai/ha): 0 | Wheat plant response rating ([5]; 500 g ai/ha): 0 | Galium plant response rating ([6]; 125 g ai/ha): 10 | Galium plant response rating ([6]; 500 g ai/ha): 20 | Pigweed plant response rating ([7]; 125 g ai/ha): 10 | Pigweed plant response rating ([7]; 500 g ai/ha): 30 | Corn plant response rating ([8]; 125 g ai/ha): 0 | Corn plant response rating ([8]; 500 g ai/ha): 0 | Kochia plant response rating ([9]; 125 g ai/ha): 0 | Kochia plant response rating ([9]; 500 g ai/ha): 0 | Barnyardgrass plant response rating ([10]; 125 g ai/ha): 0 | Barnyardgrass plant response rating ([10]; 500 g ai/ha): 0 | Sedge, Umbrella plant response rating (0 to 100 scale, 0 is no effect, 100 is complete control) [11]: 0 | Rice plant response rating (0 to 100 scale, 0 is no effect, 100 is complete control) [12]: 0 | Ducksalad plant response rating (0 to 100 scale, 0 is no effect, 100 is complete control) [13]: 0 | Barnyardgrass plant response rating (0 to 100 scale, 0 is no effect, 100 is complete control) [14]: 0 | Plant response rating (0 to 100 scale), Foxtail, Giant ([15]; 125 g ai/ha): 0 | Plant response rating (0 to 100 scale), Foxtail, Giant ([15]; 500 g ai/ha): 0 | Plant response rating (0 to 100 scale), Ryegrass, It. ([16]; 125 g ai/ha): 0 | Plant response rating (0 to 100 scale), Ryegrass, It. ([16]; 500 g ai/ha): 0 | Plant response rating (0 to 100 scale), Ragweed ([17]; 125 g ai/ha): 0 | Plant response rating (0 to 100 scale), Ragweed ([17]; 500 g ai/ha): 0 | Plant response rating (0 to 100 scale), Pigweed ([18]; 125 g ai/ha): 0 | Plant response rating (0 to 100 scale), Pigweed ([18]; 500 g ai/ha): 0 | Plant response rating (0 to 100 scale), Kochia ([19]; 125 g ai/ha): 0 | Plant response rating (0 to 100 scale), Kochia ([19]; 500 g ai/ha): 0 | Plant response rating (0 to 100 scale), Barnyardgrass ([20]; 125 g ai/ha): 0 | Plant response rating (0 to 100 scale), Barnyardgrass ([20]; 500 g ai/ha): 0

CCC(=O)Oc1c(C)nn(C)c(=O)c1-c1c(C)ccc2cc(C)oc12 [Compound 22]
Foxtail, Giant plant response rating ([1]; 31 g ai/ha): 30 | Foxtail, Giant plant response rating ([1]; 125 g ai/ha): 70 | Ryegrass, It. plant response rating ([2]; 31 g ai/ha): 70 | Ryegrass, It. plant response rating ([2]; 125 g ai/ha): 80 | Ragweed plant response rating ([3]; 31 g ai/ha): 70 | Ragweed plant response rating ([3]; 125 g ai/ha): 90 | Blackgrass plant response rating ([4]; 31 g ai/ha): 30 | Blackgrass plant response rating ([4]; 125 g ai/ha): 80 | Wheat plant response rating ([5]; 31 g ai/ha): 0 | Wheat plant response rating ([5]; 125 g ai/ha): 0 | Galium plant response rating ([6]; 31 g ai/ha): 70 | Galium plant response rating ([6]; 125 g ai/ha): 90 | Pigweed plant response rating ([7]; 31 g ai/ha): 60 | Pigweed plant response rating ([7]; 125 g ai/ha): 90 | Corn plant response rating ([8]; 31 g ai/ha): 0 | Corn plant response rating ([8]; 125 g ai/ha): 0 | Kochia plant response rating ([9]; 31 g ai/ha): 70 | Kochia plant response rating ([9]; 125 g ai/ha): 90 | Barnyardgrass plant response rating ([10]; 31 g ai/ha): 10 | Barnyardgrass plant response rating ([10]; 125 g ai/ha): 10 | Sedge, Umbrella plant response rating (0 to 100 scale, 0 is no effect, 100 is complete control) [11]: 0 | Rice plant response rating (0 to 100 scale, 0 is no effect, 100 is complete control) [12]: 0 | Ducksalad plant response rating (0 to 100 scale, 0 is no effect, 100 is complete control) [13]: 0 | Barnyardgrass plant response rating (0 to 100 scale, 0 is no effect, 100 is complete control) [14]: 0 | Plant response rating (0 to 100 scale), Foxtail, Giant ([15]; 31 g ai/ha): 0 | Plant response rating (0 to 100 scale), Foxtail, Giant ([15]; 125 g ai/ha): 50 | Plant response rating (0 to 100 scale), Ryegrass, It. ([16]; 31 g ai/ha): 30 | Plant response rating (0 to 100 scale), Ryegrass, It. ([16]; 125 g ai/ha): 80 | Plant response rating (0 to 100 scale), Ragweed ([17]; 31 g ai/ha): 20 | Plant response rating (0 to 100 scale), Ragweed ([17]; 125 g ai/ha): 80 | Plant response rating (0 to 100 scale), Pigweed ([18]; 31 g ai/ha): 100 | Plant response rating (0 to 100 scale), Pigweed ([18]; 125 g ai/ha): 100 | Plant response rating (0 to 100 scale), Kochia ([19]; 31 g ai/ha): 30 | Plant response rating (0 to 100 scale), Kochia ([19]; 125 g ai/ha): 90 | Plant response rating (0 to 100 scale), Barnyardgrass ([20]; 31 g ai/ha): 0 | Plant response rating (0 to 100 scale), Barnyardgrass ([20]; 125 g ai/ha): 10
